# Test results published in ChEMBL document CHEMBL1201862, “PubChem BioAssay data set” (2004).
# Activity calls are given as the source filed them.
# Experiments:
# [1] = cells; assay type: functional, cell-based
# [2] = cells; assay type: functional, cell-based; remark: listed apart in the source
# [3] = target: T1, Trace amine-associated receptor 1 (Homo sapiens, UniProt Q96RJ0); assay: Fluorescence-based cell-based high throughput dose response assay to identify agonists of the human trace amine associated receptor 1 (TAAR1).; assay type: functional
# T1 sequence (Q96RJ0 whole entry): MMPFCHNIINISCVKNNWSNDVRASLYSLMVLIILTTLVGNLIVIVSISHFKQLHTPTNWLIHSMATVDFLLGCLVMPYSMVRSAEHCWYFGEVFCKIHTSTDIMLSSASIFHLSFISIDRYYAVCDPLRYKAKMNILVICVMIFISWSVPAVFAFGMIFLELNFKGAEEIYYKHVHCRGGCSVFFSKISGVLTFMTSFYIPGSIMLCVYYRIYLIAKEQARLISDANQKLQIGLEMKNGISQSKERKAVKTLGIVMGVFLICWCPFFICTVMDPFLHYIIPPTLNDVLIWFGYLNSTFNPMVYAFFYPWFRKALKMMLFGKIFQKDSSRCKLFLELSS
# [4] = target: Potassium voltage-gated channel subfamily KQT member 2 (Rattus norvegicus, UniProt O88943); assay: retigabine-insensitive KCNQ2 potentiators, concentration-response, dose response, cell-based, retigabine-insensitive compounds (AID 2654); assay type: functional
# Potassium voltage-gated channel subfamily KQT member 2, sequence (O88943 whole entry): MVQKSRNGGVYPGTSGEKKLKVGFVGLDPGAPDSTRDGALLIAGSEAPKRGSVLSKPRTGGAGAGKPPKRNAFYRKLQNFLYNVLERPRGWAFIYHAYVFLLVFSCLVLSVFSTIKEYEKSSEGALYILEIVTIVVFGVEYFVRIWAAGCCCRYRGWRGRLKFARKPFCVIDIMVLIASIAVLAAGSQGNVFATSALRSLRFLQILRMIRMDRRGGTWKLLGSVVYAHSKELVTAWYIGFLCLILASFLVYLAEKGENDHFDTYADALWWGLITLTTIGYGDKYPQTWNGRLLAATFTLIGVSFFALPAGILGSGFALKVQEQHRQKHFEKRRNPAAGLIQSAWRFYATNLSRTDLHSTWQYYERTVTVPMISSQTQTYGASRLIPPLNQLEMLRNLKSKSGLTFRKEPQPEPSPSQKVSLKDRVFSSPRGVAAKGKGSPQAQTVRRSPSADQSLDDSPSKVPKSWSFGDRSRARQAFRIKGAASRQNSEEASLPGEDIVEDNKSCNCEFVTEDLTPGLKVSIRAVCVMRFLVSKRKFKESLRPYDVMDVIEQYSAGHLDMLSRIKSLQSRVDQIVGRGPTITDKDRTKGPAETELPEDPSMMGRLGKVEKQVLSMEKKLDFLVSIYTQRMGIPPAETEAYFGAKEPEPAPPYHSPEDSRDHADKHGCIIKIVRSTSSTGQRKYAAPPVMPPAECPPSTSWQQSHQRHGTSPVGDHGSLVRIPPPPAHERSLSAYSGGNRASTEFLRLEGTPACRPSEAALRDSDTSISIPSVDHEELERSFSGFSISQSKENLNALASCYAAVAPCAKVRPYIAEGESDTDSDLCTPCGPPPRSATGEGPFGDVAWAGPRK
# [5] = target: T1, Trace amine-associated receptor 1; assay: Counterscreen for agonists of the human trace amine associated receptor 1 (hTAAR1): Fluorescence-based cell-based high throughput dose response assay to identify hTAAR1 agonist that also desensitize TAAR1 receptor response.; assay type: functional
# [6] = target: T2, Neuropeptide Y receptor type 2 (Homo sapiens, UniProt P49146); assay: Fluorescence-based counterscreen for agonists of NPY-Y1: cell-based high-throughput dose response assay for agonists of NPY-Y2.; assay type: functional
# T2 sequence (P49146 whole entry): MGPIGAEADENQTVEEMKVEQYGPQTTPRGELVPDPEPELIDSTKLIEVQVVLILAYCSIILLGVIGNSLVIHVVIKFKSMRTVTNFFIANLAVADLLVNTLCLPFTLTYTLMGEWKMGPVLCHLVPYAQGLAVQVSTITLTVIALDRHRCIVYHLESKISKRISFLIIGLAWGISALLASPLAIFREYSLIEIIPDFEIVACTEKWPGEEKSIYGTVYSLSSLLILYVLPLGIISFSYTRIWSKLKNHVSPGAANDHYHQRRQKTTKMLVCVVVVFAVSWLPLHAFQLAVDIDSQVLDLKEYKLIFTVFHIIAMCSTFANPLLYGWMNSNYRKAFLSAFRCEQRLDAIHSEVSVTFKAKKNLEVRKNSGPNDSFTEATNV
# [7] = target: T3, Neuropeptide Y receptor type 1 (Homo sapiens, UniProt P25929); assay: Fluorescence-based dose response cell-based high-throughput screening assay for agonists of NPY-Y1. [Related pubchem assays: 1697 (Screening assay (NPY-Y1 agonists).), 1359 (Screening assay (NPY-Y2 potentiators or agonists).), 1304 (Screening assay (NPY-Y1 potentiators or agonists).), 1704 (Screening assay (CNGC inhibitors).), 1791 (Summary AID.)]; assay type: functional
# T3 sequence (P25929 whole entry): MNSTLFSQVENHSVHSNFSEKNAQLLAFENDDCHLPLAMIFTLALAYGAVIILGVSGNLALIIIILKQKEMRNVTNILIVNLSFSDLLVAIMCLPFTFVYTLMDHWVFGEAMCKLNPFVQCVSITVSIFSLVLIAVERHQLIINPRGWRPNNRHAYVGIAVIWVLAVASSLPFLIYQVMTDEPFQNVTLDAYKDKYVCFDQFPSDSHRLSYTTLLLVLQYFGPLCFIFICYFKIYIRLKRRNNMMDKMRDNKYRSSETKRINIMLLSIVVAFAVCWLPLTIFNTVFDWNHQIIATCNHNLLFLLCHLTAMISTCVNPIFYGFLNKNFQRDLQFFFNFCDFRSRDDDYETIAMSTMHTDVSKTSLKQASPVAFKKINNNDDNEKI
# [8] = system: HEK293; assay: Fluorescence-based counterscreen for potentiators or agonists of NPY-Y1: cell-based high-throughput dose response assay for inhibitors of cyclic nucleotide gated ion channel (CNGC) activity. In this assay, the parental HEK293 cell line transfected with a cyclic-nucleotide gated ion channel (CNGC)-based cAMP sensor is used to measure inhibition of isoproterenol-induced CNGC …; assay type: functional; settings: Homo sapiens
# [9] = system: HeLa; assay: HeLa cell cytotoxicity, dose response, cytotoxicity control, 24 h, cherry-picked samples (AID 504726); assay type: functional, cell-based; settings: Homo sapiens;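 also: potency for cytotoxicity as loss of luminescence signal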
# [10] = Fluorescence Cell-Based Dose Response to Identify Inhibitors of Thrombin Receptor-Activating Peptide SFLLRN-Mediated P-Selectin Induction on Platelets. [Related pubchem assays: 1663 (Primary HTS), 1889 (retest at dose ), 1891 (counterscreen), 1678 (Project Summary)]; assay type: functional
# [11] = system: Streptococcus; assay: Group A Streptococcus viability loss, dose response, counter-screen for streptokinase expression inhibitor project, luminescence, BacTiterGlo (AID 1915); assay type: functional, organism-based;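 also: potency for reduction of bacterial viability or growth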
# [12] = system: Streptococcus sp. 'group A'; assay: growth inhibition of control SK(-) GAS strain, dose response, counter-screen for streptokinase expression inhibitor project, luminescence, kanamycin, BacTiterGlo, confirmation (AID 1900); assay type: functional, organism-based
# [13] = Luminescence Cell-Based Dose Confirmation HTS to Identify Inhibitors of Platelet Dense Granule Release. [Related pubchem assays: 1663 (Primary HTS), 1678 (Summary of Project)]; assay type: functional
# [14] = target: T4, Eukaryotic translation initiation factor 2-alpha kinase 3 (Homo sapiens, UniProt Q9NZJ5); assay: Dose response cell-based high-throughput screening assay to measure PERK inhibition. [Related pubchem assays: 1416 ]; assay type: functional
# T4 sequence (Q9NZJ5 whole entry): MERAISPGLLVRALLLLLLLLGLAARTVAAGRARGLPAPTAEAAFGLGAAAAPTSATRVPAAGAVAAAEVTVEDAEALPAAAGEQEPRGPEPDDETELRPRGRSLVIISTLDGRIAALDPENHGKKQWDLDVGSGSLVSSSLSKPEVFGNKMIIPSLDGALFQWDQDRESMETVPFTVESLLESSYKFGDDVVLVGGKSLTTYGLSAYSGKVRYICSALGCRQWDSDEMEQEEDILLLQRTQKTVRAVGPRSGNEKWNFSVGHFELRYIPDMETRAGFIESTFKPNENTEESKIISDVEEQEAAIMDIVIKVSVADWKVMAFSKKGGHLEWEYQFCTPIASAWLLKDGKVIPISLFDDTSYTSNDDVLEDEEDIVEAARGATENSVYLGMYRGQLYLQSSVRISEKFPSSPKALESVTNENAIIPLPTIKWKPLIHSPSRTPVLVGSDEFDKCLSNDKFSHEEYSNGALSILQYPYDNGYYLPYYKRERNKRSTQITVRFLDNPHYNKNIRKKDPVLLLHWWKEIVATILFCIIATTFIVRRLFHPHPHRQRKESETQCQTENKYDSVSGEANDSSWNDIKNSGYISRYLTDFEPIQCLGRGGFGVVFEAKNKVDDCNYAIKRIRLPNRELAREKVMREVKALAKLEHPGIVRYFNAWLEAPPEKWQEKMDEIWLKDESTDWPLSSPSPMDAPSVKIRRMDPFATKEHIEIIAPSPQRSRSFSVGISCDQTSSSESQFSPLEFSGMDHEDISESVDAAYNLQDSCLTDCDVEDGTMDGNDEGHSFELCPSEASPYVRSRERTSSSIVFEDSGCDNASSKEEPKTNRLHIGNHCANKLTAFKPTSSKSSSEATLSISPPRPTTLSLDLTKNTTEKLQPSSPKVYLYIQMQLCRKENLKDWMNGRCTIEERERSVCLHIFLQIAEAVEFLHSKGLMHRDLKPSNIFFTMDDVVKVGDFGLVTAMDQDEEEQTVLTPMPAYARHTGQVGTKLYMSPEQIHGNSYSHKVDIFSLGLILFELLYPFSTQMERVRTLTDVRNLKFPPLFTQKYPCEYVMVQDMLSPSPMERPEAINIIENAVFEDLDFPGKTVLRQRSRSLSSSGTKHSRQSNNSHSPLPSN
# [15] = system: HEK293; assay: Fluorescence-based counterscreen for potentiators or agonists of NPY-Y2: cell-based high-throughput dose response assay to identify inhibitors of cyclic nucleotide gated ion channel (CNGC) activity. In this assay, the parental HEK293 cell line transfected with a cyclic-nucleotide gated ion channel (CNGC)-based cAMP sensor is used to measure inhibition of isoproterenol-induced CNGC activity by test compound.; assay type: functional; settings: Homo sapiens
# [16] = target: T4, Eukaryotic translation initiation factor 2-alpha kinase 3; assay: Counterscreen assay for PERK inhibitors: Dose response cell-based high throughput screening assay to measure inhibition of PERK at 6 hours. [Related pubchem assays: 1522, 1416 ]; assay type: functional
# [17] = target: T2, Neuropeptide Y receptor type 2; assay: Fluorescence-based cell-based high-throughput dose response assay for agonists of NPY-Y2. [Related pubchem assays: 1703 (Screening assay (CNGC inhibitors).), 1359 (Screening assay (NPY-Y2 potentiators or agonists).), 1304 (Screening assay (NPY-Y1 potentiators or agonists).), 1710 (Screening assay (NPY-Y2 agonists).), 1791 (Summary AID.)]; assay type: functional
# [18] = target: T3, Neuropeptide Y receptor type 1; assay: Fluorescence-based counterscreen for agonists of NPY-Y2: cell-based high-throughput dose response assay for agonists of NPY-Y1.; assay type: functional
# [19] = target: Dual specificity protein phosphatase 3 (Homo sapiens, UniProt P51452); assay: VHR1 inhibitor Ki determination, SAR follow-up, biochemical, colorimetric (AID 2004)
# Dual specificity protein phosphatase 3, sequence (P51452 whole entry): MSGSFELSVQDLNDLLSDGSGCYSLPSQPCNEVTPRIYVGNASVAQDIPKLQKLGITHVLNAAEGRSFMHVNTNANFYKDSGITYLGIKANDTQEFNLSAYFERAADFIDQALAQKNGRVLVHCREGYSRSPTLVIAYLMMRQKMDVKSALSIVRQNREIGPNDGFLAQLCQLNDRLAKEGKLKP
structure (smiles),measurement,setting,value
O=C(Nc1cccnc1)Nc1cccc(F)c1,EC50,[1],> 29.9 µM (inactive)
same,IC50,[2],> 29.9 µM (inactive)
same,EC50,[3],0.675 µM (active)
same,EC50,[4],6.28 µM (active)
same,IC50,[5],5.05 µM (active)
Cc1ccccc1OCC(O)CN1CCN(CC(O)COc2ccccc2C)CC1 (centres undefined),EC50,[6],> 35.4 µM (not active)
same,EC50,[7],> 35.4 µM (not active)
same,IC50,[8],12 µM (not active)
Oc1nc2c(s1)C=Nc1ccccc1N2,AC50,[9],71.5 µM (active)
same,EC50,[10],< 0.3 µM (active)
same,EC50,[11],> 150 µM (not active)
same,EC50,[12],> 150 µM (not active)
same,EC50,[13],1.17 µM (active)
COCCOC(=O)C(CC(=O)O)NCc1ccco1 (centres undefined),EC50,[14],> 55.7 µM (not active)
same,EC50,[15],> 35.4 µM (not active)
same,EC50,[16],> 55.7 µM (not active)
same,EC50,[17],> 35.4 µM (not active)
same,EC50,[18],> 35.4 µM (not active)
CC(C)=C1C(=O)NN(c2ccccc2)C1=O,Ki,[19],71 µM (inactive)
